For 27 compounds, DC50 results are on record in US12091411B2, “IRAK degraders and uses thereof” (Kymera Therapeutics, Inc., priority 2022, dated 2024).

Structures are written as SMILES. Read-outs that look alike come from different tables or passages of the source.

For this experiment, the target named is T1, IRAK4 (Homo sapiens, UniProt Q9NWZ3).
T1 construct: Degradation of IRAK4 in OCI-LY10 was quantitatively measured using Meso Scale Discovery technology; endogenous in cells; host or cells: OCI-LY10
T1 sequence (Q9NWZ3 1-460): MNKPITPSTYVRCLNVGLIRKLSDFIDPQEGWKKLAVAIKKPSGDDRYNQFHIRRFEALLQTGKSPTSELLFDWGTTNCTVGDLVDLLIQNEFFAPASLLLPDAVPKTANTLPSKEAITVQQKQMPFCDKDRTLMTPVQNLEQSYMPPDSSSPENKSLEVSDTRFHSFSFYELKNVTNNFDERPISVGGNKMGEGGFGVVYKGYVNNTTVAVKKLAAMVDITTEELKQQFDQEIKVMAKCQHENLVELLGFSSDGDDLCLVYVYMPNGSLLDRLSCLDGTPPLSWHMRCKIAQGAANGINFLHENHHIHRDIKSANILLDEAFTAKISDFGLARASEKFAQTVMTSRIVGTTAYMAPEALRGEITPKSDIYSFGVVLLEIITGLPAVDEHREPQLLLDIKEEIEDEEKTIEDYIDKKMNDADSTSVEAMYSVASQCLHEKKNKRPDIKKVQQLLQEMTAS
Kind of experiment: IRAK4 MSD Degradation in OCI-LY10. It counts as cell-based. To be noted: OCI-LY10 cells, MSD. Put shortly:
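OCI-LY10 cells exposed to 8-point 1:3 compound series (top 1 to 10 μM) for 4 to 24 h at 37 °C, 5% CO2. Lysate IRAK4 quantified by MSD sandwich immunoassay. DC50 from three-parameter logistic fit, binned A (<0.01 μM) to D (>0.2 μM or not tested).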

The mark [1] stands for this setting: 4 hrs incubation, read-out: IRAK4 degradation in OCI-LY10 at 4 hrs: DC50.
Setting [2] is: 24 hrs incubation, read-out: IRAK4 degradation in OCI-LY10 at 24 hrs: DC50.

A word on the DC50: it is the midpoint of the concentration-degradation curve. Regarding `Cn1c(=O)n(C2CCC(=O)NC2=O)c2cccc(N3CCC(N(CC(F)F)C[C@H]4CC[C@H](n5cc(NC(=O)c6cnn7cccnc67)c(C(F)F)n5)CC4)CC3)c21` (stereo partly drawn) [I-312], the DC50 reads like this: under setting [1], > 200 nM; under setting [2], > 200 nM.

`Cn1c(=O)n(C2CCC(=O)NC2=O)c2cccc(N3CCC(N(CC(F)(F)F)C[C@H]4CC[C@H](n5cc(NC(=O)c6cnn7cccnc67)c(C(F)F)n5)CC4)CC3)c21` (stereo partly drawn) [I-313]: the DC50 was > 200 nM under setting [1] and > 200 nM under setting [2].

For the compound `CN(Cc1ccc(-n2cc(NC(=O)c3cnn4cccnc34)c(C(F)F)n2)cc1)C1CCN(c2cccc3c2n(C)c(=O)n3C2CCC(=O)NC2=O)CC1` (stereo not drawn) [I-314], the DC50 was > 200 nM under setting [1] and > 200 nM under setting [2].

Take `Cn1c(=O)n(C2CCC(=O)NC2=O)c2cccc(C#CCN3CCN(C[C@H]4CC[C@H](n5cc(NC(=O)c6cnn7ccc(N8CC9(COC9)C8)nc67)c(C(F)F)n5)CC4)CC3)c21` (stereo partly drawn) [I-315]: the DC50 was > 200 nM under setting [1] and < 10 nM under setting [2].

On to `Cn1c(=O)n(C2CCC(=O)NC2=O)c2cccc(C#CCN3CCN(C[C@H]4CC[C@H](n5cc(NC(=O)c6cnn7ccc(N8CC9(CCOCC9)C8)nc67)c(C(F)F)n5)CC4)CC3)c21` (stereo partly drawn) [I-316], for which the DC50 runs as follows: under setting [1], > 200 nM; under setting [2], 10 to 100 nM.

In the case of `Cn1c(=O)n(C2CCC(=O)NC2=O)c2cccc(C#CCN3CCN(C[C@H]4CC[C@H](n5cc(NC(=O)c6cnn7ccc(N8CC9(CCOC9)C8)nc67)c(C(F)F)n5)CC4)CC3)c21` (stereo partly drawn) [I-317], the DC50 runs as follows: under setting [1], > 200 nM; under setting [2], > 200 nM.

Take `Cn1c(=O)n(C2CCC(=O)NC2=O)c2cccc(C#CCN3CCN(C[C@H]4CC[C@H](n5cc(NC(=O)c6cnn7ccc(N8CC9(CCCOC9)C8)nc67)c(C(F)F)n5)CC4)CC3)c21` (stereo partly drawn) [I-318]: the DC50 was 10 to 100 nM under setting [1] and > 200 nM under setting [2].

In the case of `Cn1c(=O)n(C2CCC(=O)NC2=O)c2cccc(C#CCN3CCN(C[C@H]4CC[C@H](n5cc(NC(=O)c6cnn7ccc(N8CCC9(CCOCC9)C8)nc67)c(C(F)F)n5)CC4)CC3)c21` (stereo partly drawn) [I-319], the DC50 was > 200 nM under setting [1] and < 10 nM under setting [2].

For the compound `Cn1c(=O)n(C2CCC(=O)NC2=O)c2cccc(C#CCN3CCN(C[C@H]4CC[C@H](n5cc(NC(=O)c6cnn7ccc(N8CCC9(COC9)C8)nc67)c(C(F)F)n5)CC4)CC3)c21` (stereo partly drawn) [I-320], the DC50 under setting [1] is < 10 nM and the DC50 under setting [2] was > 200 nM.

For the compound `Cn1c(=O)n(C2CCC(=O)NC2=O)c2cccc(C#CCN3CCN(C[C@H]4CC[C@H](n5cc(NC(=O)c6cnn7ccc(N8CCC9(CCOC9)C8)nc67)c(C(F)F)n5)CC4)CC3)c21` (stereo partly drawn) [I-321], the DC50 is, setting by setting: under setting [1], > 200 nM; under setting [2], < 10 nM.

In the case of `Cn1c(=O)n(C2CCC(=O)NC2=O)c2cccc(C#CCN3CCN(C[C@H]4CC[C@H](n5cc(NC(=O)c6cnn7ccc(N8CCOC(C(F)(F)F)C8)nc67)c(C(F)F)n5)CC4)CC3)c21` (stereo partly drawn) [I-322], the DC50 by setting is: under setting [1], > 200 nM; under setting [2], > 200 nM.

Take `Cn1c(=O)n(C2CCC(=O)NC2=O)c2cccc(C#CCN3CCN(C[C@H]4CC[C@H](n5cc(NC(=O)c6cnn7ccc(N8CC9COCC9C8)nc67)c(C(F)F)n5)CC4)CC3)c21` (stereo partly drawn) [I-323]: the half-maximal degradation concentration (DC50) runs as follows: under setting [1], > 200 nM; under setting [2], > 200 nM.

As for `Cn1c(=O)n(C2CCC(=O)NC2=O)c2cccc(C#CCN3CCN(C[C@H]4CC[C@H](n5cc(NC(=O)c6cnn7ccc(N8CCOC(F)(F)C8)nc67)c(C(F)F)n5)CC4)CC3)c21` (stereo partly drawn) [I-324], the DC50 is > 200 nM under setting [1] and > 200 nM under setting [2].

With `Cn1c(=O)n(C2CCC(=O)NC2=O)c2cccc(C#CCOC3CCN(C[C@H]4CC[C@H](n5cc(NC(=O)c6cnn7ccc(N8CC9(COC9)C8)nc67)c(C(F)F)n5)CC4)CC3)c21` (stereo partly drawn) [I-325], the DC50 reads like this: under setting [1], > 200 nM; under setting [2], > 200 nM.

Turning to `Cn1c(=O)n(C2CCC(=O)NC2=O)c2cccc(C#CCOC3CCN(C[C@H]4CC[C@H](n5cc(NC(=O)c6cnn7ccc(N8CC9(CCOCC9)C8)nc67)c(C(F)F)n5)CC4)CC3)c21` (stereo partly drawn) [I-326], the DC50 under setting [1] lay in the range of 10 to 100 nM and the 50% degradation concentration (DC50) under setting [2] was > 200 nM.

In the case of `Cn1c(=O)n(C2CCC(=O)NC2=O)c2cccc(C#CCOC3CCN(C[C@H]4CC[C@H](n5cc(NC(=O)c6cnn7ccc(N8CC9(CCOC9)C8)nc67)c(C(F)F)n5)CC4)CC3)c21` (stereo partly drawn) [I-327], the DC50 is > 200 nM under setting [1] and < 10 nM under setting [2].

As to `Cn1c(=O)n(C2CCC(=O)NC2=O)c2cccc(C#CCOC3CCN(C[C@H]4CC[C@H](n5cc(NC(=O)c6cnn7ccc(N8CC9(CCCOC9)C8)nc67)c(C(F)F)n5)CC4)CC3)c21` (stereo partly drawn) [I-328], the DC50 is, setting by setting: under setting [1], 10 to 100 nM; under setting [2], > 200 nM.

Take `Cn1c(=O)n(C2CCC(=O)NC2=O)c2cccc(C#CCOC3CCN(C[C@H]4CC[C@H](n5cc(NC(=O)c6cnn7ccc(N8CCC9(CCOCC9)C8)nc67)c(C(F)F)n5)CC4)CC3)c21` (stereo partly drawn) [I-329]: the DC50 reads like this: under setting [1], 10 to 100 nM; under setting [2], > 200 nM.

With `Cn1c(=O)n(C2CCC(=O)NC2=O)c2cccc(C#CCOC3CCN(C[C@H]4CC[C@H](n5cc(NC(=O)c6cnn7ccc(N8CCC9(COC9)C8)nc67)c(C(F)F)n5)CC4)CC3)c21` (stereo partly drawn) [I-330], the DC50 runs as follows: under setting [1], > 200 nM; under setting [2], > 200 nM.

On to `Cn1c(=O)n(C2CCC(=O)NC2=O)c2cccc(C#CCOC3CCN(C[C@H]4CC[C@H](n5cc(NC(=O)c6cnn7ccc(N8CCC9(CCOC9)C8)nc67)c(C(F)F)n5)CC4)CC3)c21` (stereo partly drawn) [I-331], for which the DC50 is 10 to 100 nM under setting [1] and > 200 nM under setting [2].

Regarding `Cn1c(=O)n(C2CCC(=O)NC2=O)c2cccc(C#CCOC3CCN(C[C@H]4CC[C@H](n5cc(NC(=O)c6cnn7ccc(N8CC9COCC9C8)nc67)c(C(F)F)n5)CC4)CC3)c21` (stereo partly drawn) [I-332], the DC50 reads like this: under setting [1], < 10 nM; under setting [2], > 200 nM.

As for `Cn1c(=O)n(C2CCC(=O)NC2=O)c2cccc(C#CCOC3CCN(C[C@H]4CC[C@H](n5cc(NC(=O)c6cnn7ccc(N8CCOC(C(F)(F)F)C8)nc67)c(C(F)F)n5)CC4)CC3)c21` (stereo partly drawn) [I-333], the DC50 is, setting by setting: under setting [1], > 200 nM; under setting [2], > 200 nM.

With `Cn1c(=O)n(C2CCC(=O)NC2=O)c2cccc(C#CCOC3CCN(C[C@H]4CC[C@H](n5cc(NC(=O)c6cnn7ccc(N8CCOC(F)(F)C8)nc67)c(C(F)F)n5)CC4)CC3)c21` (stereo partly drawn) [I-334], the DC50 reads like this: under setting [1], > 200 nM; under setting [2], > 200 nM.

For the compound `Cn1c(=O)n(C2CCC(=O)NC2=O)c2cccc(C#CCN3CCN(C[C@H]4CC[C@H](n5cc(NC(=O)c6cccc7ccc(N8CCC8)nc67)c(C(F)F)n5)CC4)CC3)c21` (stereo partly drawn) [I-335], the DC50 is > 200 nM under setting [1] and > 200 nM under setting [2].

Regarding `Cn1c(=O)n(C2CCC(=O)NC2=O)c2cccc(C#CCOC3CCN(C[C@H]4CC[C@H](n5cc(NC(=O)c6cccc7ccc(N8CCC8)nc67)c(C(F)F)n5)CC4)CC3)c21` (stereo partly drawn) [I-336], the 50% degradation concentration (DC50) was > 200 nM under setting [1] and > 200 nM under setting [2].

Take `Cn1c(=O)n(C2CCC(=O)NC2=O)c2cccc(C#CCN3CCN(C[C@H]4CC[C@H](n5cc(NC(=O)c6cnn7ccc(N8CC9CC(C8)O9)nc67)c(C(F)F)n5)CC4)CC3)c21` (stereo partly drawn) [I-337]: the DC50 reads like this: under setting [1], > 200 nM; under setting [2], < 10 nM.

For the compound `Cn1c(=O)n(C2CCC(=O)NC2=O)c2cccc(C#CCN3CCN(C[C@H]4CC[C@H](n5cc(NC(=O)c6cnn7ccc(N8C9COCC8C9)nc67)c(C(F)F)n5)CC4)CC3)c21` (stereo partly drawn) [I-338], the DC50 by setting is: under setting [1], > 200 nM; under setting [2], < 10 nM.
